# Tests used:
# [1] = tested on: odor formation in freshly-taken morning saliva; experiment: Inhibition of in vitro odor formation by higher alcohols (saliva in decarboxylase medium); format: cell-based
# Description: A series of test tubes were prepared, each containing 5 ml of decarboxylase medium (0.5% peptone, 0.3% yeast extract, 0.1% dextrose and 0.02% bromocresol purple). […] The tubes were incubated at 37° C. for three days. Following incubation, the odor was determined by a panel of odor judges, using the following semi-quantitative scale 0=no odor 1=very slight odor […] The higher alcohols tested were alkanols of chain length C8, C9, C10, C11, C12, C14, C16 and C18.
# Pseudomonas aeruginosa = experiment: Agar plate zone of growth inhibition; format: cell-based
# Description: (§1) The higher alcohols were tested for antimicrobial activity against Gram positive bacteria (Streptococcus mutans), Gram negative bacteria (Pseudomonas spp., Escherichia coli, […]) and the yeast Candida albicans. […] Five microliters of the higher alcohol solutions were placed on the surface of a rich (Brain-heart infusion) agar plate immediately after seeding with a mono-specific bacterial or yeast culture. The plates were incubated for 24-48 hours, and, following further microbial proliferation, the diameters of the zones of growth inhibition were measured (results expressed in centimeters).
# E. faecalis = experiment: Agar plate zone of growth inhibition; format: cell-based
# Description: as §1
# [2] = tested on: bacteria and yeast tested; experiment: Agar plate growth inhibition, summary statements over the test microorganisms; format: cell-based; conditions: for antimicrobial activity (summary): C. xerosis
# Description: as §1, with “centimeters). In a further set of experiments, the effect of solvent type on the antimicrobial activity of the C9 alcohol was investigated. […] These solutions were tested for antimicrobial activity towards three microorganisms (M. lysodeikticus, S. mutans and Corynebacterium xerosis) using the same assay as described above. The relationship of the concentration of the C9 alcohol to its antimicrobial activity was also investigated. […] These solutions were tested in the assay described above for their ability to inhibit the growth of the bacteria M. lysodeikticus and S. mutans.” for “centimeters).”
# S. mutans = experiment: Agar plate zone of growth inhibition; format: cell-based, Streptococcus mutans
# Description: as §1, with “centimeters). In a further set of experiments, the effect of solvent type on the antimicrobial activity of the C9 alcohol was investigated. […] These solutions were tested for antimicrobial activity towards three microorganisms (M. lysodeikticus, S. mutans and Corynebacterium xerosis) using the same assay as described above. The relationship of the concentration of the C9 alcohol to its antimicrobial activity was also investigated. […] These solutions were tested in the assay described above for their ability to inhibit the growth of the bacteria M. lysodeikticus and S. mutans.” for “centimeters).”
# C. albicans = experiment: Agar plate zone of growth inhibition; format: cell-based, Candida albicans
# Description: as §1
# M. lysodeikticus = experiment: Agar plate zone of growth inhibition; format: cell-based
# Description: Five microliters of the higher alcohol solutions were placed on the surface of a rich (Brain-heart infusion) agar plate immediately after seeding with a mono-specific bacterial or yeast culture. The plates were incubated for 24-48 hours, and, following further microbial proliferation, the diameters of the zones of growth inhibition were measured (results expressed in centimeters). In a further set of experiments, the effect of solvent type on the antimicrobial activity of the C9 alcohol was investigated. […] These solutions were tested for antimicrobial activity towards three microorganisms (M. lysodeikticus, S. mutans and Corynebacterium xerosis) using the same assay as described above. The relationship of the concentration of the C9 alcohol to its antimicrobial activity was also investigated. […] These solutions were tested in the assay described above for their ability to inhibit the growth of the bacteria M. lysodeikticus and S. mutans.
# E. coli = experiment: Agar plate zone of growth inhibition; format: cell-based, Escherichia coli
# Description: as §1
# C. xerosis = experiment: Agar plate zone of growth inhibition; format: cell-based, Corynebacterium xerosis
# Description: Five microliters of the higher alcohol solutions were placed on the surface of a rich (Brain-heart infusion) agar plate immediately after seeding with a mono-specific bacterial or yeast culture. The plates were incubated for 24-48 hours, and, following further microbial proliferation, the diameters of the zones of growth inhibition were measured (results expressed in centimeters). In a further set of experiments, the effect of solvent type on the antimicrobial activity of the C9 alcohol was investigated. […] These solutions were tested for antimicrobial activity towards three microorganisms (M. lysodeikticus, S. mutans and Corynebacterium xerosis) using the same assay as described above.
# [3] = 10 μl of 1% solution, scale 0-5
# [4] = 20 μl of 1% solution, scale 0-5
# [5] = 30 μl of 1% solution, scale 0-5
# [6] = 40 μl of 1% solution, scale 0-5
# [7] = 5 μl of 0.1% solution in 70% ethanol
# [8] = 5 μl of 1% solution (C8-C12 in 70% ethanol, C14-C18 in 100% ethanol)
# [9] = 0.3% C9 in 70% ethanol, concentration series
# [10] = 0.5% C9 in 70% ethanol, concentration series
# [11] = 1% C9 in 70% ethanol, concentration series
# [12] = 1% in 70% ethanol, solvent study
# [13] = 2% C9 in 70% ethanol, concentration series
# [14] = 3% C9 in 70% ethanol, concentration series
# [15] = 4% C9 in 70% ethanol, concentration series
# [16] = 5% C9 in 70% ethanol, concentration series
# [17] = 10% C9 in 70% ethanol, concentration series
structure (smiles),measurement,setting,value
"CCCCCCCCCO [C9, 1-nonanol]",effect on in vitro odor formation (summary),[1]; 10-50 μl of 1% solution,inhibition of odor formation
same,Odor Score (Judge 1),[1]; [3],4
same,Odor Score (Judge 2),[1]; [3],4
same,Odor Score (Judge 1),[1]; [4],4
same,Odor Score (Judge 2),[1]; [4],4
same,Odor Score (Judge 1),[1]; [5],0
same,Odor Score (Judge 2),[1]; [5],0
same,Odor Score (Judge 1),[1]; [6],0
same,Odor Score (Judge 2),[1]; [6],0
same,Odor Score (Judge 1),"[1]; 50 μl of 1% solution (C8-C12 in 70% ethanol, C14-C18 in 100% ethanol) in 5 ml medium + 200 μl saliva, 3 days 37° C., scale 0 no odor to 5 extremely foul",0
same,Odor Score (Judge 2),"[1]; 50 μl of 1% solution, scale 0-5",0
same,"diameter of zone of growth inhibition, Pseudomonas aeruginosa",Pseudomonas aeruginosa; 5 μl of 0.05% solution in 70% ethanol,0.7 centimeters
same,"diameter of zone of growth inhibition, Pseudomonas aeruginosa",Pseudomonas aeruginosa; [7],0.7 centimeters
same,"diameter of zone of growth inhibition, Pseudomonas aeruginosa",Pseudomonas aeruginosa; [8],0.6 centimeters
same,"diameter of zone of growth inhibition, E. faecalis",E. faecalis; [7],0.7 centimeters
same,"diameter of zone of growth inhibition, E. faecalis",E. faecalis; [8],0.9 centimeters
same,antimicrobial activity (summary),"[2]; 1% C9 dissolved in water, M. lysodeikticus, S. mutans",almost devoid of activity
same,antimicrobial activity (summary),"[2]; 1% C9 solutions made in the lower alcohols, M. lysodeikticus, S. mutans",highly active
same,share of the maximal antibacterial effect,"[2]; C9 0.1-0.2% in 70% ethanol, M. lysodeikticus, S. mutans",more than 75 % of the maximal effect
same,effect on microbial growth (summary),[2]; Table VI microorganisms,inhibit microbial growth
same,spectrum of activity,[2]; among the higher alcohols tested,widest spectrum of activity
same,C9 alcohol concentration giving the greatest antibacterial activity,"[2]; in 70% ethanol, range 0-10%, M. lysodeikticus, S. mutans",≥ 3%
same,"diameter of zone of growth inhibition, S. mutans",S. mutans; [9],0.8 centimeters
same,"diameter of zone of growth inhibition, S. mutans",S. mutans; [10],0.9 centimeters
same,"diameter of zone of growth inhibition, S. mutans",S. mutans; 1% C9 in 2-propanol,1.3 centimeters
same,"diameter of zone of growth inhibition, S. mutans",S. mutans; [11],0.7 centimeters
same,"diameter of zone of growth inhibition, S. mutans",S. mutans; 1% C9 in 100% methanol,0.9 centimeters
same,"diameter of zone of growth inhibition, S. mutans",S. mutans; [12],0.8 centimeters
same,"diameter of zone of growth inhibition, S. mutans",S. mutans; [13],0.8 centimeters
same,"diameter of zone of growth inhibition, S. mutans",S. mutans; [14],0.9 centimeters
same,"diameter of zone of growth inhibition, S. mutans",S. mutans; [15],1.0 centimeters
same,"diameter of zone of growth inhibition, S. mutans",S. mutans; [16],0.9 centimeters
same,"diameter of zone of growth inhibition, S. mutans",S. mutans; [7],0.9 centimeters
same,"diameter of zone of growth inhibition, S. mutans",S. mutans; [8],0.9 centimeters
same,"diameter of zone of growth inhibition, S. mutans",S. mutans; [17],1.0 centimeters
same,"diameter of zone of growth inhibition, C. albicans",C. albicans; [7],0.8 centimeters
same,"diameter of zone of growth inhibition, C. albicans",C. albicans; [8],0.9 centimeters
same,"diameter of zone of growth inhibition, M. lysodeikticus","M. lysodeikticus; 0.1% C9 in 70% ethanol, concentration series",0.7 centimeters
same,"diameter of zone of growth inhibition, M. lysodeikticus","M. lysodeikticus; 0.2% C9 in 70% ethanol, concentration series",0.9 centimeters
same,"diameter of zone of growth inhibition, M. lysodeikticus",M. lysodeikticus; [9],0.7 centimeters
same,"diameter of zone of growth inhibition, M. lysodeikticus",M. lysodeikticus; [10],0.7 centimeters
same,"diameter of zone of growth inhibition, M. lysodeikticus",M. lysodeikticus; 1% C9 in 2-propanol,1.3 centimeters
same,"diameter of zone of growth inhibition, M. lysodeikticus",M. lysodeikticus; [11],0.7 centimeters
same,"diameter of zone of growth inhibition, M. lysodeikticus",M. lysodeikticus; 1% C9 in 100% methanol,0.9 centimeters
same,"diameter of zone of growth inhibition, M. lysodeikticus",M. lysodeikticus; [12],0.7 centimeters
same,"diameter of zone of growth inhibition, M. lysodeikticus",M. lysodeikticus; [13],0.9 centimeters
same,"diameter of zone of growth inhibition, M. lysodeikticus",M. lysodeikticus; [14],0.9 centimeters
same,"diameter of zone of growth inhibition, M. lysodeikticus",M. lysodeikticus; [15],0.9 centimeters
same,"diameter of zone of growth inhibition, M. lysodeikticus",M. lysodeikticus; [16],0.9 centimeters
same,"diameter of zone of growth inhibition, M. lysodeikticus",M. lysodeikticus; [17],0.9 centimeters
same,"diameter of zone of growth inhibition, E. coli",E. coli; [7],1.0 centimeters
same,"diameter of zone of growth inhibition, E. coli",E. coli; [8],1.0 centimeters
same,"diameter of zone of growth inhibition, C. xerosis",C. xerosis; 1% C9 in 2-propanol,1.0 centimeters
same,"diameter of zone of growth inhibition, C. xerosis",C. xerosis; 1% C9 in 100% methanol,0.4 centimeters
same,"diameter of zone of growth inhibition, C. xerosis",C. xerosis; [12],0.9 centimeters
"OCC(O)CO [glycerol, reference compound]","diameter of zone of growth inhibition, C. xerosis","C. xerosis; solvent alone (100%), no C9",0.2 centimeters
"CC(C)O [2-propanol, reference compound]","diameter of zone of growth inhibition, S. mutans","S. mutans; solvent alone (100%), no C9",0.9 centimeters
same,"diameter of zone of growth inhibition, M. lysodeikticus","M. lysodeikticus; solvent alone (100%), no C9",1.1 centimeters
same,"diameter of zone of growth inhibition, C. xerosis","C. xerosis; solvent alone (100%), no C9",0.8 centimeters
"CO [methanol, reference compound]","diameter of zone of growth inhibition, C. xerosis","C. xerosis; solvent alone (100%), no C9",0.7 centimeters

# Source: patent publication US20030175216A1, “Oral antimicrobial and anti-odor compositions” (Innoscent LTD., priority 2001, published 2003)
